From ChEMBL document CHEMBL5647694, “Novel orally bioavailable EZH1/2 dual inhibitors with greater antitumor efficacy than an EZH2 selective inhibitor” (Cancer Sci, 2017)

How the values were obtained:
[1] = target: Myosin light chain kinase 2, skeletal/cardiac muscle (Homo sapiens) (UniProt Q9H1R3); test: Inhibition of N-terminal GST-fused full length human skMLCK (1 to 596 residues) expressed in baculovirus expression system using MLCtide as substrate at 1 uM in presence of ATP by Mobility shift assay
[2] = target: Receptor-type tyrosine-protein kinase FLT3 (Homo sapiens) (UniProt P36888); test: Inhibition of N-terminal GST-fused human FLT3 cytoplasmic domain (564 to 993 residues) expressed in baculovirus-infected Sf21 cells using Srctide as substrate at 1 uM in presence of ATP by Mobility shift assay
[3] = target: Tyrosine-protein kinase Lyn (Homo sapiens) (UniProt P07948); test: Inhibition of N-terminal GST-tagged full length human LynB(1 to 491 residues ) expressed in baculovirus-infected Sf21 cells using Srctide as substrate at 1 uM in presence of ATP by Mobility shift assay
[4] = target: Serine/threonine-protein kinase N1 (Homo sapiens) (UniProt Q16512); test: Inhibition of N-terminal GST-fused full length human PKN1 (1 to 942 residues) expressed in baculovirus expression system using S6K peptide as substrate at 1 uM in presence of ATP by IMAP
[5] = target: CDK2/Cyclin A2 (Homo sapiens) (UniProt P24941+P20248); test: Inhibition of N-terminal GST-tagged full length human CDK2 (1 to 298 residues)/GST-tagged human CyclinA2 (1 to 432 residues) expressed in baculovirus-infected Sf21 cells using Modified Histone H1 as substrate at 1 uM in presence of ATP by Mobility shift assay
[6] = target: Casein kinase II alpha/beta (Homo sapiens) (UniProt P67870+P68400); test: Inhibition of N-terminal GST-fused full length human CK2alpha1 (1 to 391 residues)/His-tagged human CK2beta (1 to 215 residues) expressed in baculovirus expression system using CK2tide as substrate at 1 uM in presence of ATP by Mobility shift assay
[7] = target: CDC7/DBF4 (Cell division cycle 7-related protein kinase/Activator of S phase kinase) (Homo sapiens) (UniProt Q9UBU7+O00311); test: Inhibition of N-terminal GST-tagged full length human CDC7 (1 to 574 residues)/N-terminal GST-tagged ASK (1 to 674 residues) expressed in baculovirus-infected Sf21 cells using MCM2 peptide as substrate at 1 uM in presence of ATP by Mobility shift assay
[8] = target: CDK4/Cyclin D3 (Homo sapiens) (UniProt P11802+P30281); test: Inhibition of N-terminal GST-tagged full length human CDK4 (1 to 303 residues)/N-terminal GST-tagged human CyclinD3 (1 to 292 residues) expressed in baculovirus-infected Sf21 cells using DYRKtide-F as substrate at 1 uM in presence of ATP by Mobility shift assay
[9] = target: Serine/threonine-protein kinase D1 (Homo sapiens) (UniProt Q15139); test: Inhibition of N-terminal GST-fused full length human PKD1 (1 to 912 residues) expressed in baculovirus expression system using GS peptide as substrate at 1 uM in presence of ATP by Mobility shift assay
[10] = target: Ribosomal protein S6 kinase alpha-1 (Homo sapiens) (UniProt Q15418); test: Inhibition of N-terminal GST-fused human full length RSK1 (1 to 735 residues) expressed in baculovirus expression system using S6K peptide(N-FL) as substrate at 1 uM in presence of ATP by Mobility shift assay
[11] = Inhibition of N-terminal GST-tagged human TRKB cytoplasmic domain (456 to 825 residues) expressed in baculovirus-infected Sf21 cells using Srctide as substrate at 1 uM in presence of ATP by Mobility shift assay; conditions: condition cancer
[12] = target: Protein kinase C beta type (Homo sapiens) (UniProt P05771); test: Inhibition of N-terminal GST-fused human full length PKC-beta2 (1 to 673 residues ) expressed in baculovirus expression system using PKC peptide as substrate at 1 uM in presence of ATP by Mobility shift assay
[13] = target: Death-associated protein kinase 1 (Homo sapiens) (UniProt P53355); test: Inhibition of N-terminal GST-fused human DAPK1 catalytic domain (1 to 289 residues) expressed in baculovirus expression system using DAPK1tide as substrate at 1 uM in presence of ATP by Mobility shift assay
[14] = target: Tyrosine-protein kinase JAK2 (Homo sapiens) (UniProt O60674); test: Inhibition of N-terminal His-tagged human JAK2 catalytic domain (826 to 1132 residues) expressed in baculovirus-infected Sf21 cells using Srctide as substrate at 1 uM in presence of ATP by Mobility shift assay
[15] = target: Serine/threonine-protein kinase PLK2 (Homo sapiens) (UniProt Q9NYY3); test: Inhibition of N-terminal GST-fused full length human PLK2 (1 to 685 residues) expressed in baculovirus expression system using CHK2 peptide as substrate at 1 uM in presence of ATP by IMAP
[16] = target: Ephrin type-A receptor 7 (Homo sapiens) (UniProt Q15375); test: Inhibition of N-terminal GST-fused human EPHA7 cytoplasmic domain (595 to 998 residues) expressed in baculovirus-infected Sf21 cells using Blk/Lyntide as substrate at 1 uM in presence of ATP by Mobility shift assay
[17] = target: Ephrin type-B receptor 1 (Homo sapiens) (UniProt P54762); test: Inhibition of N-terminal GST-fused human EPHB1 cytoplasmic domain (578 to 984 residues) expressed in baculovirus-infected Sf21 cells using Blk/Lyntide as substrate at 1 uM in presence of ATP by Mobility shift assay
[18] = target: Calcium/calmodulin-dependent protein kinase type II subunit alpha (Homo sapiens) (UniProt Q9UQM7); test: Inhibition of N-terminal GST-fused full length human CAMK2a (1 to 478 residues) expressed in baculovirus-infected Sf21 cells using GS peptide as substrate at 1 uM in presence of ATP by Mobility shift assay
[19] = target: Vascular endothelial growth factor receptor 2 (Homo sapiens) (UniProt P35968); test: Inhibition of N-terminal GST-tagged human KDR cytoplasmic domain (790 to 1356 residues) expressed in baculovirus-infected Sf21 cells using CSKtide as substrate at 1 uM in presence of ATP by Mobility shift assay
[20] = target: MAP kinase-activated protein kinase 5 (Homo sapiens) (UniProt Q8IW41); test: Inhibition of N-terminal GST-fused full length human MAPKAPK5 (1 to 471 residues) expressed in baculovirus expression system using GS peptide as substrate at 1 uM in presence of ATP by Mobility shift assay
[21] = target: Serine/threonine-protein kinase WNK3 (Homo sapiens) (UniProt Q9BYP7); test: Inhibition of N-terminal GST-fused human WNK3 catalytic domain (1 to 434 residues) expressed in baculovirus expression system using SPAKtide as substrate at 1 uM in presence of ATP by Mobility shift assay
[22] = target: Dual specificity tyrosine-phosphorylation-regulated kinase 1A (Homo sapiens) (UniProt Q13627); test: Inhibition of N-terminal GST-fused full length human DYRK1A (1 to 763 residues) expressed in baculovirus expression system using DYRKtide-F as substrate at 1 uM in presence of ATP by Mobility shift assay

## Cc1cc(C)c(CNC(=O)c2cc(Cl)c3c(c2C)O[C@@](C)([C@H]2CC[C@H](N(C)C)CC2)O3)c(=O)[nH]1 [VALEMETOSTAT]
[1]
  inhibition: -1.6%
[2]
  inhibition: -1.5%
[3]
  inhibition: -4.3%
[4]
  inhibition: 8.3%
[5]
  inhibition: 3%
[6]
  inhibition: -4%
[7]
  inhibition: -6.7%
[8]
  inhibition: 2.1%
[9]
  inhibition: -6.9%
[10]
  inhibition: -0.2%
[11]
  inhibition at 1 µM: -8.7%
[12]
  inhibition: -1.1%
[13]
  inhibition: 14.9%
[14]
  inhibition: -4.5%
[15]
  inhibition: 4.8%
[16]
  inhibition: -1.9%
[17]
  inhibition: -3.4%
[18]
  inhibition: -2.8%
[19]
  inhibition: -3%
[20]
  inhibition: -5.7%
[21]
  inhibition: -3.9%
[22]
  inhibition: -3.4%

## Cc1cc(C)c(CNC(=O)c2cc(Br)c3c(c2C)O[C@@](C)([C@H]2CC[C@H](N(C)C)CC2)O3)c(=O)[nH]1
[1]
  inhibition: 2.4%
[2]
  inhibition: -2.6%
[3]
  inhibition: -3.2%
[4]
  inhibition: 6.7%
[5]
  inhibition: -0.3%
[6]
  inhibition: -5.8%
[7]
  inhibition: -5.5%
[8]
  inhibition: -4.5%
[9]
  inhibition: -6.9%
[10]
  inhibition: -6.4%
[11]
  inhibition at 1 µM: -7.7%
[12]
  inhibition: 3.2%
[13]
  inhibition: 3.4%
[14]
  inhibition: -4.4%
[15]
  inhibition: 11.8%
[16]
  inhibition: -3.3%
[17]
  inhibition: -2.7%
[18]
  inhibition: -1.1%
[19]
  inhibition: -1.1%
[20]
  inhibition: -3.1%
[21]
  inhibition: -9.2%
[22]
  inhibition: -8.2%
